The test system of one data set is platelet-rich thrombi. Description: Thrombolytic activity in rats with extracorporal circulation (method of Gryglewski). The conditions noted are these: for thrombolytic response: single injection, fall in weight of thrombi, maximum response. The class given is in vivo, Wistar rats. As for the experimental part: Thrombolytic activity of quaternary pyridinium salts was assessed using original method of Gryglewski et al., (Gryglewski R J, Korbut R, Ocetkiewicz A, Stachura J. In vivo method for quantitation for anti-platelet potency of drugs. Naunyn Schmiedebergs Arch Pharmacol 1978; 302:25-30), the scheme of which was shown on FIG. 1.
(§1) Wistar rats of body weight 300-350 g were anaesthetised (thiopental 30 mg kg^−1 i.p.) and heparinised (unfractionated heparin. 800 i.u. kg^−1 i.v.). Arterial blood pressure was measured from cannulated right carotid artery, and extracorporal circulation was established between left carotid artery and left jugular vein. A collagen strip from rabbit tendon of Achilles was superfused with arterial blood in extracorporal circulation at a rate of 1.5 ml min^−1 and its weight was continuously monitored by an auxotonic Harvard transducer.
(§2) During the initial 20-30 min of superfusion the strip was gaining in weight by 80-120 mg because of deposition of platelet-rich thrombi and then in control conditions stayed unchanged during next 3-5 hrs. Thrombolytic response was detected by a fall in weight of a thrombi. Arterial blood pressure was also monitored, so this model enabled the analysis of thrombolytic and hypotensive action of a compound (FIG. 1).

Data set [1] relates to 6-keto-PGF1α (stable PGI2 metabolite). Kind of data set: Assay of 6-keto-PGF1α in arterial blood plasma (enzyme immunoassay). The class given is in vivo, Wistar rats. As for the experimental part:
(§3) The analysis of the thrombolytic response in this experimental set-up was complemented by the assay of 6-keto-PGF1α, TXB2 and PGE2 in arterial blood plasma. For this purpose blood samples (500 μl) were collected in Eppendorff tubes with indomethacin to yield its final concentration of 10 μM, and EDTA to yield the final concentration of 1 mM. Then, the blood samples were spinned for 5 min at 2.000×g. Plasma samples were stored at −70° C. The prostanoids were assayed using the enzyme immunoassay kits (Cayman Chemical Co, Ann Arbor, Mich.).

For another data set, the system named is neutrophils. Kind of data set: Latex-induced activation of neutrophils. The class given is cell-based.
The next data set deals with TXB2. Description: Assay of TXB2 in arterial blood plasma (enzyme immunoassay). It counts as in vivo, Wistar rats. The conditions noted are these: 30 mg/kg i.v. As for the experimental part: as §3
The next data set deals with PGE2. Description: Assay of PGE2 in arterial blood plasma (enzyme immunoassay). It counts as in vivo, Wistar rats. The settings on record: 30 mg/kg i.v. As for the experimental part:
as §3

The nature of data set [2]: Arterial blood pressure monitoring (hypotensive action). The class given is in vivo, Wistar rats. As for the experimental part: as §1, §2
For a further data set, the system named is platelets. Description: Collagen-induced aggregation in platelet-rich plasma in vitro. The conditions noted are these: for effect on collagen-induced aggregation of platelets (FIG. 9): FIG. 9, (1 mg/ml). The class given is cell-based.
The nature of data set [3]: Anti-atherogenic effect in dyslipidemic patients (plasma TC, TG, HDL). The class given is in vivo. The settings on record: 30 mg orally three times a day. On the procedure:
The anti-atherogenic effect of MNA^+ was investigated in 15 dyslipidemic patients. The enrollment criteria were: high level of TG (≧250 mg/dl) and low level of HDL (≦35 mg/dl for male, ≦45 mg/dl for female). The mean age of the patients was 61.4 (range 45-81 years). The patients were treated with MNA^+ for 2 weeks. The MNA^+ was administered orally, three times a day, one capsule (30 mg MNA^+) after meal. The plasma levels of TC, TG, HDL were measured at baseline and after 2 weeks of therapy. The level of LDL was measured in those cases, where it was possible (due to high TG level).

“Also recorded” adds a separate entry of the source.

We go through 10 molecules from patent US20100173956A1, “Use of Quaternary Pyridinium Salts as Vasoprotective Agents” (Pharmena Spolka Akcyjna (Pharmena S.A.), priority 2004, published 2010).

Consider “1-Methyl-3-acetylpyridinium salt [MAP^+]”, for which the “thrombolytic response (in words)” value with platelet-rich thrombi (30 mg/kg i.v.) is reported as “comparable to that induced by 30 mg/kg of MNA^+”. Besides, in data set [1] (30 mg/kg i.v.), the “change of 6-keto-PGF1α level / release of PGI2 (in words)” value is listed as “associated with the release of PGI2”.
On to `Cn1cc(C(N)=O)ccc1=O` [2-PYR, 1-methyl-2-pyridone-5-carboxyamide], for which, in the data set on platelet-rich thrombi (30 mg/kg i.v.), the “duration of thrombolytic response (transient)” value was under 15 min, the “thrombolytic response (in words)” value was “Lack of thrombolytic response; also recorded: failed to induce a significant thrombolytic response; also recorded: did not display a significant thrombolytic activity” and the thrombolytic response is listed as under 10%.
Regarding `c1ccc2c(c1)[I+]c1ccccc1-2` [DPI, reference compound], the “effect on latex-induced activation of neutrophils (FIG. 10)” value (shortened to “effect on latex-induced activation”) in the data set on neutrophils is on record as “abrogated”.
On to `C[n+]1cccc(C(=O)NCO)c1` [MNAF^+, 1-methyl-N′-(hydroxymethyl)nicotinamide], for which, in the data set on platelet-rich thrombi (30 mg/kg i.v.), the “thrombolytic response (in words)” value is listed as “comparable to that induced by 30 mg/kg of MNA^+”.
`C[n+]1cccc(C(N)=O)c1` [MNA^+, 1-methylnicotinamide]: the thrombolytic response in the data set with platelet-rich thrombi (30 mg/kg i.v.) is 42±4%. Besides, the “duration of thrombolytic response” value with platelet-rich thrombi (30 mg/kg i.v., response remained at approximately the same level over the observation period) fell in the range of 2 to 3 h. Also, the “dose dependence of thrombolysis” value in the data set on platelet-rich thrombi (3-30 mg/kg i.v.) is reported as “concentration-dependent thrombolysis”. Also, the “dose of maximum thrombolytic response” value with platelet-rich thrombi (i.v., 3-30 mg/kg tested) was determined as 30 mg/kg. Besides, in the data set with platelet-rich thrombi (indomethacin 5 mg/kg), the “thrombolytic response in the presence of indomethacin” value is “abrogated”. Further, in data set [1] (30 mg/kg i.v.), the “change of 6-keto-PGF1α level / release of PGI2 (in words)” value is on record as “concomitant increase in level of 6-keto-PGF1α”. Besides, the “level of 6-keto-PGF1α in arterial plasma” value in data set [1] (30 mg/kg i.v., 15 minutes after injection, before injection 104±7 pg/ml) is 460 ± 58 pg/mL. Besides, the “plateau level of 6-keto-PGF1α in arterial plasma” value in data set [1] (30 mg/kg i.v., for at least one hour) is given as “around 400 pg/ml”. In data set [1] (indomethacin 5 mg/kg), the “release of 6-keto-PGF1α in the presence of indomethacin” value is “abrogated”. Besides, in the data set on TXB2, the “change of TXB2 level in arterial plasma” value is reported as “neither TXB2 nor PGE2 levels changed significantly”. Also, in the data set with PGE2, the “change of PGE2 level in arterial plasma” value was “neither TXB2 nor PGE2 levels changed significantly”. In addition, in data set [2] (30 mg/kg i.v., during thrombolysis), the “fall in arterial blood pressure” value is recorded as “not associated with a fall in arterial blood pressure”. Moreover, in data set [2] (30-300 mg/kg), the hypotension entry was “did not cause hypotension”. Further, the “effect on collagen-induced aggregation of platelets (FIG. 9)” value in the data set with platelets was “Lack of effect; also recorded: did not inhibit”. Moreover, in the data set on platelets (in vitro, up to concentration of 10 mM), the “effect on collagen-induced aggregation in platelet-rich plasma” value is recorded as “not affected”. In addition, in the data set with neutrophils (1 mM), the “inhibition of latex-induced activation of neutrophils” value was “did not inhibit”. Besides, in the data set on neutrophils, the “effect on latex-induced activation” value is “Lack of effect; also recorded: did not inhibit”. Moreover, in data set [3], the “change of TC level, baseline to 2 weeks” value is on record as −15.7%; the “change of TG level, baseline to 2 weeks” value is listed as −47.1%; the “increase of HDL level, baseline to 2 weeks” value was found to be 36.2%. Also, the “TC plasma level after 2 weeks” value in data set [3] (15 dyslipidemic patients, baseline 267.0 mg/dl) was determined as 225.1 mg/dL. Also, in data set [3] (baseline 39.2 mg/dl), the “HDL plasma level after 2 weeks” value came to 53.4 mg/dL. In addition, the “TG plasma level after 2 weeks” value in data set [3] (baseline 472.6 mg/dl) was 249.9 mg/dL. Moreover, the “TG/HDL ratio after 2 weeks” value in data set [3] (baseline 13.9) was found to be 5.8.
Regarding `COc1cc(C(C)=O)ccc1O` [apocynin, reference compound], the “effect on latex-induced activation” value with neutrophils is “abrogated”.
As for `CC(=O)Oc1ccccc1C(=O)O` [aspirin, reference compound], the “effect on collagen-induced aggregation of platelets (FIG. 9)” value in the data set with platelets is reported as “abrogated”.
Turning to `NC(=O)c1cccnc1` [nicotinamide], in the data set on platelet-rich thrombi (30 mg/kg i.v.), the “thrombolytic response (in words)” value is “Lack of thrombolytic response; also recorded: failed to induce a significant thrombolytic response” and the thrombolytic response was determined as 9±0.6%. Also, in the data set on platelet-rich thrombi (30 mg/kg i.v., listed as Nicotinamide), the “thrombolytic response (in words)” value is given as “did not display a significant thrombolytic activity”. For the same molecule, the “change of 6-keto-PGF1α level / release of PGI2 (in words)” value in data set [1] (30 mg/kg i.v.) is given as “did not increase”.
As to `O=C(O)c1cccnc1` [nicotinic acid], in the data set on platelet-rich thrombi (30 mg/kg i.v.), the “thrombolytic response (in words)” value was “Lack of thrombolytic response; also recorded: failed to induce a significant thrombolytic response; also recorded: did not display a significant thrombolytic activity” and the thrombolytic response was determined as 5±0.9%. The “change of 6-keto-PGF1α level / release of PGI2 (in words)” value in data set [1] (30 mg/kg i.v.) is listed as “did not increase”.
Regarding `C[n+]1cccc(C(=O)[O-])c1` [trigonelline], in the data set with platelet-rich thrombi (30 mg/kg i.v.), the “thrombolytic response (in words)” value is on record as “Lack of thrombolytic response; also recorded: failed to induce a significant thrombolytic response; also recorded: did not display a significant thrombolytic activity” and the thrombolytic response entry is given as “did not produce any thrombolytic response”.
